The values below come from ChEMBL document CHEMBL1221253, “Fragment-based discovery and optimization of BACE1 inhibitors” (Bioorg Med Chem Lett, 2010).

Usually inhibition stands for the share of the control response that was lost under treatment. Broadly, the IC50 is the concentration at which inhibition is half-maximal. Usually half-life stands for how long it takes for the measured level to halve. Low values mean rapid decline, high ones slow decline.

SMILES strings stand for the structures.

The target in series [1] is T1, Beta-secretase 1 (Homo sapiens, UniProt P56817). The experiment in a line: Binding affinity to BACE1 at 2 mM by surface plasmon resonance assay. For orientation: SPR reads the build-up and loss of mass on a sensor chip optically.
T1 sequence (P56817 whole entry): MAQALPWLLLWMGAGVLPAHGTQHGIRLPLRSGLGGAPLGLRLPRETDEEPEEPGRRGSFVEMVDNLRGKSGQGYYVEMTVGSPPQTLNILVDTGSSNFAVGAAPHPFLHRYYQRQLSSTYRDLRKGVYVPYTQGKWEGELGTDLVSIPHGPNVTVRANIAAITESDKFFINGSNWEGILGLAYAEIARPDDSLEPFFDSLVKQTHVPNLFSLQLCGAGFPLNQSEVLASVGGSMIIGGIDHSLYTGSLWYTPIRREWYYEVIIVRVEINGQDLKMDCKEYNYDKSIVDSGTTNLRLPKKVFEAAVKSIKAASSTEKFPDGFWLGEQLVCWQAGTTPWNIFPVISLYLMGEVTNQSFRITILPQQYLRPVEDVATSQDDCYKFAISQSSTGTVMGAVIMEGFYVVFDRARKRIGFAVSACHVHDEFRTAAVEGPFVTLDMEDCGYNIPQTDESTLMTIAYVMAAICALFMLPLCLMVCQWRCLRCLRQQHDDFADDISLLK
The target of series [2] is T1, Beta-secretase 1. The experiment in a line: Inhibition of BACE1 assessed as amyloid beta secretion by cell based assay.
Series [3] in a line: Genotoxicity in Salmonella Typhimurium by Ames test. The conditions noted are these: salmonella enterica subsp. enterica serovar typhimurium. It counts as toxicity. (In general: The Ames test uses bacterial strains that need an amino acid and regain growth without it when mutated back.)
Series [4] is described as follows: Genotoxicity in Salmonella Typhimurium by Ames test in presence of S9 liver microsomes. It counts as toxicity, Microsome. The conditions noted are these: salmonella enterica subsp. enterica serovar typhimurium.
Series [5] deals with Voltage-gated inwardly rectifying potassium channel KCNH2 (Homo sapiens, UniProt Q12809). The experiment in a line: Inhibition of human ERG.
Chain of Voltage-gated inwardly rectifying potassium channel KCNH2 (Q12809 whole entry): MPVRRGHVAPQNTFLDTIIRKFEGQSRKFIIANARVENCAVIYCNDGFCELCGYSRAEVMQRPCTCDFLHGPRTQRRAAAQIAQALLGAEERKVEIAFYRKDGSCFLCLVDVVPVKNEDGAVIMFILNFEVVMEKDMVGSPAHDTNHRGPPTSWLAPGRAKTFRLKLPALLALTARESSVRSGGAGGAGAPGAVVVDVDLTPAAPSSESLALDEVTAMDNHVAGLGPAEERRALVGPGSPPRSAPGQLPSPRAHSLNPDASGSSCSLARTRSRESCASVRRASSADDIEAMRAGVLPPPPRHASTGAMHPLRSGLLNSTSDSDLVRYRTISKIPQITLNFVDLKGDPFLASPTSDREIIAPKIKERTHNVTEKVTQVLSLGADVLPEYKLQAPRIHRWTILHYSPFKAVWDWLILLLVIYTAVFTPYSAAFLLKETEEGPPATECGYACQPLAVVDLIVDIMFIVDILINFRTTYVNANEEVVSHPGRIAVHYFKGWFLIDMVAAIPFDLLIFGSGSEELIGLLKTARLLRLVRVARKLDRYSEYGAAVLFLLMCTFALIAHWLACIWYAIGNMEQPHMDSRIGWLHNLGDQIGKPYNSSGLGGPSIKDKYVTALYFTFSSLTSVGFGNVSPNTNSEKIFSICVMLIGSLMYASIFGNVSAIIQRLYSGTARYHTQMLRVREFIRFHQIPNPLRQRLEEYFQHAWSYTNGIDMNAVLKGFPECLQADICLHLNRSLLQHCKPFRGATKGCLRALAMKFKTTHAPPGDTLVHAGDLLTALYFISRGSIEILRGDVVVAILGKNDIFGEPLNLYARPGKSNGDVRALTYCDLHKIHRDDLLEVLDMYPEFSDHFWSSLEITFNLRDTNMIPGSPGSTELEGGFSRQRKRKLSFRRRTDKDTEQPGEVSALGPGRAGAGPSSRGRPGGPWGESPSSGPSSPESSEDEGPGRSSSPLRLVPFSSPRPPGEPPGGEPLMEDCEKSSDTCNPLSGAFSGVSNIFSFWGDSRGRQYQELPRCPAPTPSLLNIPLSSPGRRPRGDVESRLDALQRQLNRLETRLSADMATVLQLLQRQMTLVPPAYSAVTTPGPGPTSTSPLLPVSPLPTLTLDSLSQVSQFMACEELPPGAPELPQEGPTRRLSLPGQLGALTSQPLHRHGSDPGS
Another series concerns the target Cathepsin D (Homo sapiens, UniProt P07339). The experiment in a line: Inhibition of cathepsin D.
A further series has as its target T2, Beta-secretase 2 (Homo sapiens, UniProt Q9Y5Z0).
T2 sequence (Q9Y5Z0 whole entry): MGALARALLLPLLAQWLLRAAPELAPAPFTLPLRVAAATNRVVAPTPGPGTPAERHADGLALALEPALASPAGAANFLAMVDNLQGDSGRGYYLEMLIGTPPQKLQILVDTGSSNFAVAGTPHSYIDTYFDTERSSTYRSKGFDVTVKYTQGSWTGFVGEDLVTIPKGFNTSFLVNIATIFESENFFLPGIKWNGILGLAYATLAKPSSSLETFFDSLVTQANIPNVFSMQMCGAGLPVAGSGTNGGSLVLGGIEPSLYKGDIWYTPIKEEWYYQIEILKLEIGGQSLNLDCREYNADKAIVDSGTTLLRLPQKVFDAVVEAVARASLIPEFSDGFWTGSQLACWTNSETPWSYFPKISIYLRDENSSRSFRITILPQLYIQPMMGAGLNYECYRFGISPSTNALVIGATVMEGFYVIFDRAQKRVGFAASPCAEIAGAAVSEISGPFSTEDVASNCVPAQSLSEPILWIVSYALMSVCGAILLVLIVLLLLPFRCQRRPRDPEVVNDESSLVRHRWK
The experiment in a line: Inhibition of human BACE2.

The nature of series [6]: Half life in human liver microsomes. It counts as ADME, Microsome. Background: Liver microsomes are a subcellular fraction often used to study metabolism.
Series [7] is described as follows: Half life in rat liver microsomes. It counts as ADME, Microsome.
The nature of series [8]: Maximum drug flux by PAMPA. It counts as ADME.

Chain of Cathepsin D (P07339 65-162 limits assumed): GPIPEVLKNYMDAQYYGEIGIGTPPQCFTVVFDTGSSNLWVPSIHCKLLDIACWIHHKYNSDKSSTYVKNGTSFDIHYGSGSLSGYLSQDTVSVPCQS
Chain of Cathepsin D (P07339 169-412 limits assumed): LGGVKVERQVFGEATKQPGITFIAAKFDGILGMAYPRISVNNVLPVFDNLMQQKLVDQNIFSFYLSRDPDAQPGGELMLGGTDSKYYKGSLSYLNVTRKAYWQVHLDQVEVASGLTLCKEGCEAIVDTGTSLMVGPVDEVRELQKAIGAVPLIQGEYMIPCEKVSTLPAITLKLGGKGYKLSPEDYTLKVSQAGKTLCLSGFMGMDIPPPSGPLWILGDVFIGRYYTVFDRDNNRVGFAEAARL

`Nc1nc2cc(Cl)ccc2n1CCCO` returned an inhibition on Beta-secretase 1 [1] of 63%. At Beta-secretase 1 [2], the IC50 was 770 µM. As to `CC[C@H](CC(=O)NCc1ccccc1)n1c(N)nc2cc(Cl)ccc21`, the IC50 on Beta-secretase 1 [2] stood at 516 µM. On to `Nc1nc2cc(Cl)ccc2n1CCCC(=O)NCc1ccccn1`, for which the half-maximal inhibitory concentration (IC50) on Beta-secretase 1 [2] was 426 µM. On to `CC[C@@H](CC(=O)N(C)CC1CCCCC1)n1c(N)nc2cc(Cl)ccc21`, for which the IC50 at Beta-secretase 1 [2] is 375 µM. With `CC[C@@H](CC(=O)N[C@@H](COC(C)(C)C)C(=O)O)n1c(N)nc2cc(Cl)ccc21`, the half-inhibitory concentration (IC50) at Beta-secretase 1 [2] turned out to be 87 µM. `CC[C@@H](CC(=O)NCC1CCCCC1)n1c(N)nc2cc(Cl)ccc21`: the Activity result in [3] is “Non-toxic”; in [4] it was “Non-toxic”; in [8] it was 12%. Further, the IC50 in series [5] is 7.5 µM; against Cathepsin D it was 42 µM; against Beta-secretase 2, 8 µM. Also, the half-life is 5.5 min in [6] and 6.7 min in [7].

As to `CC[C@@H](CC(=O)NC(C)C)n1c(N)nc2cc(Cl)ccc21`, on Beta-secretase 1 [2], the IC50 is 695 µM. With `CC(C)C[C@@H](CC(=O)NCc1cccc(F)c1)n1c(N)nc2cc(Cl)ccc21`, at Beta-secretase 1 [2], the IC50 was 54 µM.

Consider `CC[C@@H](CC(=O)NCc1cccc(F)c1)n1c(N)nc2cc(Cl)ccc21`, for which the IC50 on Beta-secretase 1 [2] was 340 µM. For the compound `CN(CC1CCCCC1)C(=O)CCCn1c(N)nc2cc(Cl)ccc21`, the 50% inhibitory concentration (IC50) at Beta-secretase 1 [2] was determined as 59 µM.

For `Nc1nc2cc(Cl)ccc2n1CCCC(=O)NCc1cccc(F)c1`, the 50% inhibitory concentration (IC50) at Beta-secretase 1 [2] was found to be 249 µM. On to `COn1c(-c2ccccc2)nc2ncccc21`, for which, at Beta-secretase 1 [1], the inhibition is 36%. At Beta-secretase 1 [2], the concentration for half-maximal inhibition (IC50) came to 928 µM. On to `CN1CCC(NC(=O)CCCn2c(N)nc3cc(Cl)ccc32)CC1`, for which, at Beta-secretase 1 [2], the IC50 amounted to 325 µM. On to `Nc1nc2cc(Cl)ccc2n1CCCC(=O)NCc1ccccc1`, for which the 50% inhibitory concentration (IC50) on Beta-secretase 1 [2] was 1400 µM. With `Nc1nc2cc(Cl)ccc2n1CCCC(=O)NCCC1CCNC1` (stereo not given), the IC50 at Beta-secretase 1 [2] came to 444 µM. For `CC[C@@H](CC(=O)NCC1CC1)n1c(N)nc2cc(Cl)ccc21`, on Beta-secretase 1 [2], the IC50 turned out to be 243 µM. The same measure, in the same setting: for `CC(C)NC(=O)CCCn1c(N)nc2cc(Cl)ccc21` the value was 193 µM; for `Nc1nc2cc(Cl)ccc2n1CCCC(=O)NCCN1CCOCC1`, 827 µM. In the case of `Nc1nc2ccc(Cl)cc2[nH]1`, at Beta-secretase 1 [1], the inhibition stood at 34%. For the same compound, at Beta-secretase 1 [2], the IC50 turned out to be 731 µM.

In the case of `Nc1nc2cc(Cl)ccc2n1CCCC(=O)NCC1CCCCC1`, the 50% inhibitory concentration (IC50) on Beta-secretase 1 [2] is 83 µM. As to `CC[C@@H](CC(=O)NCCN1CCOCC1)n1c(N)nc2cc(Cl)ccc21`, the concentration for half-maximal inhibition (IC50) at Beta-secretase 1 [2] is 440 µM. On to `CC[C@@H](CC(=O)N[C@@H](COC(C)(C)C)C(=O)OC)n1c(N)nc2cc(Cl)ccc21`, for which, on Beta-secretase 1 [2], the IC50 came out at 168 µM. Turning to `c1cnc2ncc(-c3ccncc3)n2c1`, the inhibition on Beta-secretase 1 [1] is 20%. Moreover, the concentration for half-maximal inhibition (IC50) on Beta-secretase 1 [2] was 1010 µM.

Consider `Nc1nc2cc(Cl)ccc2n1CCCC(=O)NCC1CC1`, for which, at Beta-secretase 1 [2], the concentration for half-maximal inhibition (IC50) is 2850 µM. Regarding `O=C1c2ccccc2C(=O)C1(O)O`, at Beta-secretase 1 [1], the inhibition turned out to be 27%. Further, the IC50 on Beta-secretase 1 [2] is 776 µM. Consider `CC(C)C[C@@H](CC(=O)NC(C)C)n1c(N)nc2cc(Cl)ccc21`, for which the half-maximal inhibitory concentration (IC50) on Beta-secretase 1 [2] is 246 µM. `CC(C)C[C@H](CC(=O)NC(C)C)n1c(N)nc2cc(Cl)ccc21`: the IC50 at Beta-secretase 1 [2] is over 1000 µM. On to `CC(C)C[C@@H](CC(=O)NCc1ccccn1)n1c(N)nc2cc(Cl)ccc21`, for which the IC50 on Beta-secretase 1 [2] came out at 235 µM. Still for that read-out and setting: for `CC[C@@H](CC(=O)N[C@H](COC(C)(C)C)C(=O)OC)n1c(N)nc2cc(Cl)ccc21` the value was 75 µM. Regarding `Clc1cccc(-c2cnc3ncccn23)c1`, the inhibition on Beta-secretase 1 [1] came out at 29%. Also, the IC50 on Beta-secretase 1 [2] turned out to be 862 µM. With `CC[C@@H](CC(=O)NCc1ccccn1)n1c(N)nc2cc(Cl)ccc21`, the IC50 at Beta-secretase 1 [2] was over 1000 µM.

`CC[C@@H](CC(=O)NCCC1CCNC1)n1c(N)nc2cc(Cl)ccc21` (stereo not given in full): the IC50 at Beta-secretase 1 [2] was 270 µM.

Regarding `CC[C@@H](CC(=O)NCc1ccc(F)cc1)n1c(N)nc2cc(Cl)ccc21`, the IC50 at Beta-secretase 1 [2] is 264 µM. On the same count and under the same terms, to `CC[C@@H](CC(=O)NCC1CCOCC1)n1c(N)nc2cc(Cl)ccc21` belongs over 1000 µM; to `CC[C@@H](CC(=O)NCCC(C)(C)C)n1c(N)nc2cc(Cl)ccc21`, 95 µM.

For `CC[C@@H](CC(=O)NCc1ccccc1)n1c(N)nc2cc(Cl)ccc21`, the 50% inhibitory concentration (IC50) at Beta-secretase 1 [2] stood at 72 µM. Same read-out and setting: to `CN(Cc1cccc(F)c1)C(=O)CCCn1c(N)nc2cc(Cl)ccc21` belongs 194 µM.
